This series addresses T1, Human CYP8B1 (Homo sapiens, UniProt Q9UNU6).
T1 construct: tissue Xenotech; host or cells: human liver microsomes
T1 sequence (Q9UNU6 1-501): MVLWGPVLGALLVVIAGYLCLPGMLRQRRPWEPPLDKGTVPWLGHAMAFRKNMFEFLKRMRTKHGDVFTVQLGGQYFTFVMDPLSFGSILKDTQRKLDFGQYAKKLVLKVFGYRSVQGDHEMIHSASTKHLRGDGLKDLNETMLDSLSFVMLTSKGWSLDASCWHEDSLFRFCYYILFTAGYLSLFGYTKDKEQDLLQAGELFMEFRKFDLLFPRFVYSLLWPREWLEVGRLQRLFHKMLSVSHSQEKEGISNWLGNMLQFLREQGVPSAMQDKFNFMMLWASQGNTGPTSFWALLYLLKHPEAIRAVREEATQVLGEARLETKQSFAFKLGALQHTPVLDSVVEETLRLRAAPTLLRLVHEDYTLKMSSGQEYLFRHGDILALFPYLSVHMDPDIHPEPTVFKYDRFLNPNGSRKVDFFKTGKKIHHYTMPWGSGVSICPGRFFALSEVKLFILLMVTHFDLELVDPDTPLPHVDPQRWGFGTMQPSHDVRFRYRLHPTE
Put plainly: Human Cyp8B1 Liver Microsome Assay. The series is classed as biochemical. To be noted: human liver microsomes; substrate 7α-hydroxy-4-cholesten-3-one, NADPH; 30 min pre-incubation, 45 min reaction; RapidFire MS readout. How it is done:
Human Cyp8B1 Liver Microsome Assay To a 384 well polypropylene plate (Corning 3656), 250 nl of inhibitor in 100% DMSO (1.25% final DMSO concentration) was pre-plated using an Echo liquid handler (Labcyte Inc.). Human liver microsomes (Xenotech) were diluted in of 0.1 M phosphate buffer, pH 7.4, at a concentration of 65 μg/ml and 15 μL was added to the 384 well plate. The plates were incubated at ambient room temperature for 30 minutes. After pre-incubation with inhibitor, the reaction was initiated by adding 5 μl of substrate solution (4.0 μM 7α-hydroxy-4-cholesten-3-one(Toronto Research Chemicals), 2 mM of NADPH (Sigma), 0.1 M phosphate buffer (pH 7.4). The reaction was carried out for 45 minutes at ambient room temperature and was quenched by the addition of 50 μl of acetonitrile+0.1% vol/vol formic acid (FA)+300 nM 7α-hydroxy-4-cholesten-3-one-d7 (Toronto Research Chemicals). The plates were sealed and centrifuged at 3000 rpm for 5 minutes. Plates were loaded onto the Agilent RapidFire RF300 HTMS system, wherein samples were sipped for 600 ms, and the sip sensor detection signals the diversion of sample from the loop onto a C4 solid phase extraction (SPE) cartridge, where salts are washed off for 2500 ms with a mobile phase of water with 0.1% vol/vol FA at a flow rate of 1.5 ml/min. The column path is switched, and the sample is eluted off the cartridge and flowed into the mass spectrometer for 3000 ms with a mobile phase of acetonitrile and 0.1% vol/vol FA at a flow rate of 1.25 ml/min. The aspirator tip was washed separately with water and acetonitrile between sample aspirations (each for 600 ms) to minimize carryover contamination. Mass spectrometry was carried out using a Sciex API4000 triple quadrupole mass spectrometer (Applied Biosystems, Concord, ON, Canada) equipped with electrospray ionization (ESI) operated in the positive-ion mode. The product 7α, 12α-dihydroxy-4-cholesten-3-one and internal standard 7α-hydroxy-4-cholsten-3-one-d7 were detected using multiple reaction monitoring (MRM) with Q1/Q3 transitions at m/z 417.3 to 381.3 and m/z 408.3 to 390.3, respectively, with a dwell time of 100 ms and a collision energy of 24 V for each transition. The mass spectrometer used an ESI voltage of 5000 V and a source temperature of 650° C. Extracted ion chromatograms for each transition were integrated and processed using the RapidFire Integrator software. The data for each well were normalized by monitoring product conversion with the ratio of AUCproduct/(AUCinternal standard). The data was then fitted to a four parameter logistic fit using ActivityBase Software to calculate an IC50 of the inhibitor.
Background: Liver microsomes are a subcellular fraction often used to study metabolism.

Where a name gives a salt, the structure may show the parent alone.

In turn, `C[C@@H]1CN(c2ccnc3cc(C(C)(F)F)ccc23)CC[C@@H]1C(=O)N1CCn2c(nnc2C(F)(F)F)C1` [Example 46, {(3S,4S)-1-[7-(1,1-difluoroethyl)quinolin-4-yl]-3-methylpiperidin-4-yl}[3-(trifluoromethyl)-5,6-dihydro[1,2,4]triazolo[4,3-a]pyrazin-7(8H)-yl]methanone] displayed an IC50 of 1.1 nM.
In turn, `C[C@@H]1CN(c2c(Cl)cnc3c(F)cccc23)CC[C@@H]1C(=O)N1CCn2c(nnc2C(F)(F)F)C1` [Example 6, ((3S,4S)-1-(3-chloro-8-fluoroquinolin-4-yl)-3-methylpiperidin-4-yl)(3-(trifluoromethyl)-5,6-dihydro-[1,2,4]triazolo[4,3-a]pyrazin-7(8H)-yl)methanone] came in with an IC50 of 0.9 nM.
For the compound `Cc1coc(-c2ccc3c(N4CC[C@H](C(=O)N5CCn6c(nnc6C(F)(F)F)C5)[C@H](C)C4)ccnc3c2)n1` [Example 75, ((3S,4S)-3-methyl-1-(7-(4-methyloxazol-2-yl)quinolin-4-yl)piperidin-4-yl)(3-(trifluoromethyl)-5,6-dihydro-[1,2,4]triazolo[4,3-a]pyrazin-7(8H)-yl)methanone], the 50% inhibitory concentration (IC50) was determined as 1.4 nM.
For `C[C@@H]1CN(c2ccnc3cc(C4CC4)ccc23)CC[C@@H]1C(=O)N1CCn2c(nnc2C(F)(F)F)C1` [Example 28, 7-cyclopropyl-4-[(3S,4S)-3-methyl-4-{[3-(trifluoromethyl)-5,6-dihydro[1,2,4]tria-zolo[4,3-a]pyrazin-7(8H)-yl]carbonyl}piper-idin-1-yl]quinolinium chloride], the IC50 came out at 0.66 nM.
Compound `C[C@@H]1CN(c2c(Cl)cnc3c2CCN(CC2CC2)C3)CC[C@@H]1C(=O)N1CCn2c(nnc2C(F)(F)F)C1` [Example 61, ((3S,4S)-1-(3-chloro-7-(cyclopropylmethyl)-5,6,7,8-tetrahydro-1,7-naphthyridin-4-yl)-3-methylpiperidin-4-yl)(3-(trifluoromethyl)-5,6-dihydro-[1,2,4]triazolo[4,3-a]pyrazin-7(8H)-yl)methanone] showed an IC50 of 1 nM.
Take `C[C@@H]1CN(c2c(C(F)F)cnc3c(F)c(Cl)ccc23)CC[C@@H]1C(=O)N1CCn2c(nnc2C(F)(F)F)C1` [Example 7, ((3S,4S)-1-(7-chloro-3-(difluoromethyl)-8-fluoroquinolin-4-yl)-3-methylpiperidin-4-yl)(3-(trifluoromethyl)-5,6-dihydro-[1,2,4]triazolo[4,3-a]pyrazin-7(8H)-yl)methanone]: the midpoint of inhibition, the IC50, lay at 0.7 nM.
The result for `Cc1cc(N2CC[C@H](C(=O)N3CCn4c(nnc4C(F)(F)F)C3)[C@H](C)C2)c2cc(F)cc(F)c2n1` [Example 17, [(3S,4S)-1-(6,8-difluoro-2-methylquinolin-4-yl)-3-methylpiperidin-4-yl][3-(trifluoromethyl)-5,6-dihydro[1,2,4]tria-zolo[4,3-a]pyrazin-7(8H)-yl]methanone] reads 145 nM.
The compound `C[C@@H]1CN(c2c(F)cnc3cc(C(F)(F)F)ccc23)CC[C@@H]1C(=O)N1CCn2c(nnc2C(F)(F)F)C1` [Example 45, {(3S,4S)-1-[3-fluoro-7-(trifluoromethyl)quinolin-4-yl]-3-methylpiperidin-4-yl}[3-(trifluoromethyl)-5,6-dihydro[1,2,4]triazolo[4,3-a]pyrazin-7(8H)-yl]methanone] gave an IC50 of 0.25 nM.
The compound `C[C@@H]1CN(c2c(Cl)cnc3c2CCN(c2ccccn2)C3)CC[C@@H]1C(=O)N1CCn2c(nnc2C(F)(F)F)C1` [Example 62, ((3S,4S)-1-(3-chloro-7-(pyridin-2-yl)-5,6,7,8-tetrahydro-1,7-naphthyridin-4-yl)-3-methylpiperidin-4-yl)(3-(trifluoromethyl)-5,6-dihydro-[1,2,4]triazolo[4,3-a]pyrazin-7(8H)-yl)methanone] showed an IC50 of 0.4 nM.
Compound `C[C@@H]1CN(c2ccnc3cc(-c4ncco4)ccc23)CC[C@@H]1C(=O)N1CCn2c(nnc2C(F)(F)F)C1` [Example 73, ((3S,4S)-3-methyl-1-(7-(oxazol-2-yl)quinolin-4-yl)piperidin-4-yl)(3-(trifluoromethyl)-5,6-dihydro-[1,2,4]triazolo[4,3-a]pyrazin-7(8H)-yl)methanone] had an IC50 of 0.4 nM.
Regarding `C[C@@H]1CN(c2c(Cl)cnc3cc(Br)ccc23)CC[C@@H]1C(=O)N1CCn2c(nnc2C(F)(F)F)C1` [Example 42, [(3S,4S)-1-(7-bromo-3-chloroquinolin-4-yl)-3-methylpiperidin-4-yl][3-(trifluoromethyl)-5,6-dihydro[1,2,4]triazolo[4,3-a]pyrazin-7(81)-yl]methanone], the IC50 stood at 0.44 nM.
In the case of `Cc1cnc2cc(C(F)(F)F)ccc2c1N1CC[C@H](C(=O)N2CCn3c(nnc3C(F)(F)F)C2)[C@H](C)C1` [Example 35, {(3S,4S)-3-methyl-1-[3-methyl-7-(trifluoromethyl)quinolin-4-yl]piperidin-4-yl}[3-(trifluoromethyl)-5,6-dihydro[1,2,4]triazolo[4,3-a]pyrazin-7(8H)-yl]methanone], the IC50 was 0.17 nM.
`C[C@@H]1CN(c2ccnc3c(F)c(Cl)ccc23)CC[C@@H]1C(=O)N1CCn2c(nnc2C(F)(F)F)C1` [Example 20, 7-chloro-8-fluoro-4-[(3S,4S)-3-methyl-4-{[3-(trifluoromethyl)-5,6-dihydro[1,2,4]tria-zolo[4,3-a]pyrazin-7(8H)-yl]carbonyl}piper-idin-1-yl]quinolinium trifluoroacetate] had an IC50 of 14 nM.
In turn, `C[C@@H]1CN(c2ccnc3ccc(Cl)cc23)CC[C@@H]1C(=O)N1CCn2c(nnc2C(F)(F)F)C1` (single isomer, unassigned) [Example 11a] yielded an IC50 of 3.5 nM.
`COc1ccc2c(N3CC[C@H](C(=O)N4CCn5c(nnc5C(F)(F)F)C4)[C@H](C)C3)c(Cl)cnc2c1` [Example 3, ((3S,4S)-1-(3-chloro-7-methoxyquinolin-4-yl)-3-methylpiperidin-4-yl)(3-(trifluoromethyl)-5,6-dihydro-[1,2,4]triazolo[4,3-a]pyrazin-7(8H)-yl)methanone] gave an IC50 of 0.2 nM.
In turn, `C[C@@H]1CN(c2c(F)cnc3cc(C(C)(F)F)ccc23)CC[C@@H]1C(=O)N1CCn2c(nnc2C(F)(F)F)C1` [Example 47, {(3S,4S)-1-[7-(1,1-difluoroethyl)-3-fluoroquinolin-4-yl]-3-methylpiperidin-4-yl}[3-(trifluoromethyl)-5,6-dihydro[1,2,4]triazolo[4,3-a]pyrazin-7(8H)-yl]methanone] showed an IC50 of 0.57 nM.
As for `C[C@@H]1CN(c2c(C(F)F)cnc3cc(C4CC4)ccc23)CC[C@@H]1C(=O)N1CCn2c(nnc2C(F)(F)F)C1` [Example 54, {(3S,4S)-1-[7-cyclopropyl-3-(difluoromethyl)quinolin-4-yl]-3-methylpiperidin-4-yl}[3-(trifluoromethyl)-5,6-dihydro[1,2,4]triazolo[4,3-a]pyrazin-7(81H)-yl]methanone], it took 0.61 nM to reach half-maximal inhibition (IC50).
For `COc1ccc2nccc(N3CC[C@H](C(=O)N4CCn5c(nnc5C(F)(F)F)C4)[C@H](C)C3)c2n1` [Example 26, [(3S,4S)-1-(6-methoxy-1,5-naphthyridin-4-yl)-3-methylpiperidin-4-yl][3-(trifluoromethyl)-5,6-dihydro[1,2,4]tria-zolo[4,3-a]pyrazin-7(8H)-yl]methanone], the IC50 was determined as 18 nM.

As a reminder, the IC50 is the concentration at which inhibition is half-maximal. A lower IC50 goes with higher potency.

For the origin of these results see US10414775B2 (Merck Sharp & Dohme Corp., priority 2016, dated 2019).
